Measured values published in patent publication US20200030355A1, “COMBINATION THERAPY FOR TREATING CANCER” (Epizyme, Inc., priority 2014, published 2020).
“Also recorded” adds a separate entry of the source.

Assays:
[1] = system: MOLM-13 (MLL-AF9); experiment: Combination proliferation study with Compound A2 (ATP/CellTiter-Glo, Chou-Talalay combination index); assay type: cell-based, human
Method in brief: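 Viability by CellTiter-Glo ATP luminescence; Fa relative to DMSO controls. Combination index by Chou-Talalay (CI<1 synergy, =1 additive, >1 antagonism).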

[2] = system: KOPM-88 (MLL-PTD); experiment: Combination proliferation study with Compound A2; assay type: cell-based, human; details: Table 3, Example 3
Description: (§1) The HP-D300 digital dispenser (Tecan) was used to dispense compounds in a combinatorial matrix. […] Cell viability was measured via ATP content using CellTiter-Glo® (Promega).
(§2) Viability was determined using CellTiter-Glo® (Promega).

[3] = system: EOL-1 (MLL-PTD); experiment: Combination proliferation study with Compound A2; assay type: cell-based, human; details: Table 3, Example 3
Description: as §1, §2

[4] = system: MV4-11 (MLL-AF4); experiment: Combination proliferation study with Compound A2 (ATP/CellTiter-Glo, Chou-Talalay combination index); assay type: cell-based, human; details: for Combination of Compound A2 and anti-cancer agent, MV4-11: 7 Day Cotreatment; for Combination with Compound A2, MV4-11 (MLL-AF4): 7 Day Cotreatment Model, Table 4; for Combination with Compound A2, MV4-111 MLL-AF4: Table 2, Example 3
Description: The acute myelogenous leukemia cell lines MV4-11 (MLL-AF4) and MOLM-13 (MLL-AF9) were obtained from American Type Culture Collection (ATCC; Rockville, Md.) and Deutsche Sammlung von Mikroorganismen and Zellkulturen (DSMZ; Braunschweig, Germany) respectively.
Studies were performed using MLL-rearranged cell lines in vitro to evaluate the anti-proliferative effect of a combination of two agents together on cell growth. Initial proliferation studies were performed to determine the IC50 of a given compound in each cell line. The cell counts were measured by ATP quantitation using the Promega Cell Titer Glo kit and luminescence values corresponded to the amount of ATP in a given well.
Compounds were evaluated for synergy in the co-treatment phase by testing the compounds in a concentration range which was bracketed around their IC50 values. The compounds were plated to a 96 well plate in a matrix format (FIG. 3) which includes increasing concentrations of each drug in the combination in a constant ratio, in addition to the effect of each compound alone in the study. Cells were seeded and grown in the log-linear phase for 3 or 7 days in the co-treatment phase. Minimum inhibition (DMSO alone) controls were used in each plate to calculate fraction affected (Fa) of a test well. DMSO concentration was kept at 0.1% v/v.
The drug combination analysis was performed utilizing the Chou-Talalay method Synergy was determined using the software package Calcusyn by Biosoft. The combination index (CI) is a quantitative term used to describe the level of synergy or antagonism in a given test system. A combination index less than one indicates synergy, and a CI greater than one indicates antagonism. Further, strong synergism is achieved when the CI value falls below 0.3.
(§3) Graphs representing values of combination index (CI) versus Fractional effect (Fa) known as Fa-CI plots were generated and synergy was evaluated. Drug synergy was statistically defined by CI values less than 1, antagonism by CI>1 and additive effect by CI equal to 1.
as §3, §1, §2
(§4) Proliferation studies were performed using MOLM-13, MV4-11 and SKM-1 cell lines in vitro to evaluate the cancer cell killing effect of a combination of two agents together on cell growth. Initial proliferation studies were performed to determine the IC50 values of a given compound in each cell line. The cell counts were measured by ATP quantitation using the Promega Cell Titer Glo kit and luminescence values correspond to the amount of ATP in a given well.
These studies were performed to evaluate both the combinatorial effect of compounds on cell killing and the durability of the effect by washing out one of the agents.
Compounds evaluated for synergy in the co-treatment phase were tested in a range which was bracketed around the IC50's. The compounds were plated to a 96 well plate in a matrix format which includes increasing concentrations of each drug in the combination in a constant ratio, in addition to the effect of each compound alone in the study.

[5] = system: SKM-1 (non-MLL-rearranged AML); experiment: as above; assay type: cell-based, human; details: for Effect of Compound A2 on the antiproliferative activity of the second agent: SKM-1, non-MLL-rearranged, Example 5
Description: (§5) Graphs representing values of combination index (CI) versus Fractional effect (Fa) known as Fa-CI plots were generated and synergy was evaluated.
as §5, §1, §2
MV4-11 cells were maintained in IMDM supplemented with 10% fetal bovine serum. MOLM-13 and SKM-1 cells were maintained in Roswell Park Memorial Institute medium (RPMI) supplemented with 10% fetal bovine serum. They were cultured in flasks or plates in a humidified 5% CO2 atmosphere.
as §4
Compounds evaluated for synergy in the co-treatment phase were tested in a range which was bracketed around the IC50's. The compounds were plated to a 96 well plate in a matrix format which includes increasing concentrations of each drug in the combination in a constant ratio, in addition to the effect of each compound alone in the study. Cells were seeded and grown in the log-linear phase for 3 or 7 days in the cotreatment phase. Maximum and minimum inhibition (DMSO alone) controls were used in each plate to calculate fraction affected (Fa) of a test well. DMSO concentration was kept at 0.1% v/v. The drug combination analysis was performed utilizing the Chou-Talalay method. Synergy was determined using the software package Calcusyn by Biosoft. The combination index (CI) is the term used to describe the level of synergy or antagonism in a given test system. A combination index less than one indicates synergy, and a CI greater than one indicates antagonism.
The drug combination analysis was performed using the Chou-Talalay method. Graphs representing values of combination index (CI) versus Fractional effect (Fa) known as Fa-CI plots were generated and synergy was evaluated.

[6] = system: SKM-1 (non-MLLr); experiment: EPZ-5676 7-day pre-treatment, then second compound 72 hours, growth inhibition GI100 shift; primary screen and retest (Example 7); assay type: cell-based, human; details: 300 nM EPZ-5676 7-day pre-treatment
Description: (§6) Cells were then equilibrated in incubators for 24 hours before treatment with a second compound. Treated assay plates were incubated with a second compound for 72 hours. After this time, plates were developed for endpoint analysis using ATPLite to measure ATP content, which is used as an indicator of cell viability.
(§7) Cells were then treated with a second compound for 72 hours. After this time, plates were developed for endpoint analysis using Cell Titer Glo to measure ATP content, which is used as an indicator of cell viability.
(§8) “N/D” means the GI100 of the second compound could not be determined for both conditions and “-” means not tested.
(§9) Growth Inhibition (GI) as a measure of cell viability: The cell viability of vehicle was measured at the time of dosing the second agent (T0) and after seventy-two hours (T72). […] A GI 200% represents complete death of all cells in the culture well. Compounds reaching an activity plateau of GI 200% are considered cytotoxic. GI is calculated by applying the following test and equation: […]
(§10) where T is the signal measure for a test article, V is the vehicle-treated control measure, and V0 is the vehicle control measure at time zero.

[7] = system: MOLM-13 (MLL-AF9); experiment: as above; assay type: cell-based, human; details: second compound 72 hours
Description: as §6, §7, §8, §9, §10

[8] = system: OCI-AML-4 (MLL-ENL); experiment: as above; assay type: cell-based; details: 300 nM EPZ-5676 7-day pre-treatment, second compound 72 hours
Description: as §6, §7, §8, §9, §10

[9] = system: MOLM-13 cells; experiment: EPZ-5676 300 nM 7-day pre-treatment, then second compound 72 hours, ATPLite, IC50 shift (Example 6); assay type: cell-based, human; details: 300 nM EPZ-5676 or DMSO 7-day pre-treatment, then 2nd compound 72 hours, Synergy = IC50 of 2nd compound decreased by 2-fold or more vs DMSO control
Description: as §6
(§11) “N/D” means that IC50 of the second compound could not be determined for both conditions.

[10] = system: SKM-1 cells; experiment: as above; assay type: cell-based, human; details: SKM-1 cells; 300 nM EPZ-5676 or DMSO 7-day pre-treatment, then 2nd compound 72 hours, ATPLite; Synergy = IC50 of 2nd compound decreased by 2-fold or more vs DMSO control
Description: as §6, §11

[11] = 7 Day Cotreatment Model, Table 4

SMILES: Nc1ncn([C@@H]2O[C@H](CO)[C@@H](O)[C@H]2O)c(=O)n1 [Azacitidine]
- Combination with Compound A2, MOLM-13 (MLL-AF9) [1, 11]: Strong Synergy
- Combination with Compound A2, MOLM-13 (MLL-AF9) ([1]; 7 Day Cotreatment Model, Table 4, listed as azacytidine): synergistically induce an anti-proliferative effect; also recorded: synergistic anti-proliferative activity
- Combination with Compound A2, MOLM-13 (MLL-AF9) ([1]; Table 2, Example 3): Synergy (Drug synergy was statistically defined by CI values less than 1)
- Combination with Compound A2, KOPM-88 (MLL-PTD) [2]: Synergy (Drug synergy was statistically defined by CI values less than 1)
- Combination with Compound A2, EOL-1 (MLL-PTD) [3]: Synergy (Drug synergy was statistically defined by CI values less than 1)
- Combination of Compound A2 and anti-cancer agent, MV4-11 [4]: Synergy (A combination index less than one indicates synergy)
- Combination with Compound A2, MV4-11 (MLL-AF4) [4]: Synergy (Drug synergy was statistically defined by CI values less than 1)
- Combination with Compound A2, MV4-11 (MLL-AF4) ([4]; listed as azacytidine): synergistically induce an anti-proliferative effect; also recorded: synergistic anti-proliferative activity
- Combination with Compound A2, MV4-111 MLL-AF4 [4]: Synergy (Drug synergy was statistically defined by CI values less than 1)
- Effect of Compound A2 on the antiproliferative activity of the second agent ([5]; listed as Azacytidine): not potentiated
- Effect of Compound A2 on the antiproliferative activity of the second agent ([5]; listed as azacytidine): no impact

SMILES: COc1cc2c(cc1-c1c(C)noc1C)ncc1[nH]c(=O)n([C@H](C)c3ccccn3)c12 [IBET-151]
- Combination with Compound A2, MOLM-13 (MLL-AF9) [1, 11]: Synergy (Drug synergy was statistically defined by CI values less than 1)
- Combination with Compound A2, MOLM-13 (MLL-AF9) ([1]; Table 2, Example 3): Synergy (Drug synergy was statistically defined by CI values less than 1)
- Combination of Compound A2 and anti-cancer agent, MV4-11 [4]: Synergy (A combination index less than one indicates synergy)
- Combination with Compound A2, MV4-111 MLL-AF4 [4]: Synergy (Drug synergy was statistically defined by CI values less than 1)
- Combination with Compound A2, SKM-1 AML: Non-rearranged ([5]; Table 2, Example 3): IC50 not achieved

SMILES: C[C@]12C=CC(=O)C=C1CC[C@@H]1[C@@H]2[C@@H](O)C[C@@]2(C)[C@H]1CC[C@]2(O)C(=O)CO [Prednisolone]
- Combination with Compound A2, MOLM-13 (MLL-AF9) [1, 11]: Antagonistic (antagonism by CI>1)
- Combination with Compound A2, MOLM-13 (MLL-AF9) ([1]; 7 Day Cotreatment Model, Table 4, listed as prednisolone): antagonism
- Combination with Compound A2, MV4-11 (MLL-AF4) [4]: Antagonistic (antagonism by CI>1)
- Combination with Compound A2, MV4-11 (MLL-AF4) ([4]; listed as prednisolone): antagonism
- Effect of Compound A2 on the antiproliferative activity of the second agent [5]: enhanced antiproliferative activity

SMILES: O=C(Nc1ccc2[nH]nc(-c3ccncc3)c2c1)[C@@H]1CCN(CC(=O)N2CCN(c3ccc(-c4ncccn4)cc3)CC2)C1 [SCH772984]
- Combination with EPZ-5676, SKM-1 (non-MLLr) Primary screen ([6]; ATPLite): Synergy (considered synergistic if the GI100 (Growth inhibition 100) value of the second compound decreased by 2-fold or more when EPZ-5676 was added as compared to the DMSO control)
- Combination with EPZ-5676, SKM-1 (non-MLLr) Retest ([6]; Cell Titer Glo): Synergy (considered synergistic if the GI100 (Growth inhibition 100) value of the second compound decreased by 2-fold or more when EPZ-5676 was added as compared to the DMSO control)
- Combination with EPZ-5676, MOLM-13 (MLL-AF9) Retest ([7]; 150 nM EPZ-5676 7-day pre-treatment, Cell Titer Glo): Synergy (considered synergistic if the GI100 (Growth inhibition 100) value of the second compound decreased by 2-fold or more when EPZ-5676 was added as compared to the DMSO control)
- Combination with EPZ-5676, MOLM-13 (MLL-AF9) Primary screen ([7]; 300 nM EPZ-5676 7-day pre-treatment, ATPLite): Synergy (considered synergistic if the GI100 (Growth inhibition 100) value of the second compound decreased by 2-fold or more when EPZ-5676 was added as compared to the DMSO control)
- Combination with EPZ-5676, OCI-AML-4 (MLL-ENL) Primary screen ([8]; ATPLite): Synergy (considered synergistic if the GI100 (Growth inhibition 100) value of the second compound decreased by 2-fold or more when EPZ-5676 was added as compared to the DMSO control)
- Combination with EPZ-5676, OCI-AML-4 (MLL-ENL) Retest ([8]; Cell Titer Glo): Synergy (considered synergistic if the GI100 (Growth inhibition 100) value of the second compound decreased by 2-fold or more when EPZ-5676 was added as compared to the DMSO control)
- MOLM-13 (summary of combination study: EPZ-5676 + 2nd compound) [9]: Synergy (considered synergistic if the IC50 value of the second compound decreased by 2-fold or more when EPZ-5676 was added as compared to the DMSO control)
- SKM-1 (summary of combination study: EPZ-5676 + 2nd compound) [10]: Synergy (considered synergistic if the IC50 value of the second compound decreased by 2-fold or more when EPZ-5676 was added as compared to the DMSO control)
